Measurements: paper PMC11435438, “Cyclin-Dependent Kinase 8 Represents a Positive Regulator of Cytomegalovirus Replication and a Novel Host Target for Antiviral Strategies” (Pharmaceutics, 2024)

These compounds were tested on HCMV TB40-YFP (assay: HCMV TB40-YFP replication assay in U373 cells). Details: Human betaherpesvirus 5, U373 MG, read-out: EC50 TB40-YFP.
Type: cell-based, human cytomegalovirus
Experimental: (i.e., 1 × TCID25/7d). Immediately after virus adsorption, the cells were treated with antiviral compounds or solvent control (DMSO). Infections were performed in biological quadruplicates, or as indicated for individual experiments. The cells were fixed by the addition of 150 µL 10% formalin/well 7 d p.i. (Merlin-GFP 14 d p.i.), and washed with PBS. For GFP or YFP quantitation, the Victor X4 microplate reader (PerkinElmer, Waltham, MA, USA) was primarily used, or as a very sensitive alternative, the ImageXpress® Pico device (Molecular Devices LLC, San Jose, CA, USA). Mean EC50 values of antiviral efficacy were calculated on the basis of three experimental replicates or as indicated (measurement of fluorescence values in quadruplicate), and percentage values were provided relative to the solvent control (DMSO).

Structure (SMILES) | EC50 [nM]
Cc1n[nH]c2ncc(C(=O)N3CCC[C@H]3c3ccc(Cl)cc3)cc12 [MSC-2530818] | 12.3 ± 11.3
CN(C)C(=O)Cn1cc(-c2ccc(-c3cncc4ccccc34)cc2)cn1 [BI-1347] | 19.3 ± 21
Cn1ncc2cc(-c3cnc(N)c(Cl)c3N3CCC4(CCNC4=O)CC3)ccc21 [CCT-151921] | 8.5 ± 11.1

These compounds were tested on GPCMV-GFP (assay: GPCMV-GFP replication assay in GPEFs). Details: Caviid betaherpesvirus 2, read-out: EC50 GPCMV.
Type: cell-based, guinea pig cytomegalovirus
From the text: Similarly, 2 × 10^4 primary embryonic guinea pig fibroblasts GPEFs/96-well, or 1.35 × 10^4 HFFs/96-well, or 2 × 10^4 rat REFs/96-well, or 2 × 10^4 murine MEFs/96-well, were cultivated for infection with GPCMV-GFP, RhCMV-GFP, ChCMV, RCMV-mCherry, or MCMV-GFP, respectively (all approx. MOI of 0.01 referring to 1 × TCID25), and were used for the assessment of antiviral drug activity. To this end, cells were fixed 7 d p.i. (RCMV-mCherry 4 d p.i.), before GFP or mCherry expression was quantified using the Victor X4 microplate reader, or other viral replication markers were measured as explained for the individual experiments. ChCMV replication in HFFs was monitored and quantified by the use of Anti-Cytomegalovirus Antibody Alexa Fluor™ 488. For immunofluorescence staining with Anti-Cytomegalovirus Antibody Alexa Fluor™ 488 (Sigma Aldrich, St. Louis, MO, USA; solution in PBS with 1% FCS), the infected cells were fixed at 7 d p.i. with 10% formalin and permeabilized with 0.2% Triton-x-100. Cell nuclei were counterstained using Höchst dye to be measured using the ImageXpress Pico (Molecular Devices, LLC, San Jose, CA, USA). Mean EC50 values of antiviral efficacy were calculated on the basis of three experimental replicates or as indicated (measurement of fluorescence values in quadruplicate), and percentage values were provided relative to the solvent control (DMSO).
To address cell viability after compound treatment, a NR uptake assay was performed. Uninfected cells were seeded at equal numbers as for antiviral replication assays and treated with compounds or solvent control. […] NR fluorescence was quantified using the Victor X4 microplate reader (PerkinElmer, Waltham, MA, USA) (560/630 nm). For the AB cell viability assay, which was also used to quantify virus-induced cytopathogenicity (particularly in the case of GPCMV in GPEFs), cells were seeded at equal numbers as for antiviral replication assays and incubated with a medium containing 25 ng/mL AB (resazurin; Ann Arbor, MI, USA), incubated for 6 h at 37 °C, and used for measurement identical with NR.

Structure (SMILES) | EC50 [nM]
Cc1n[nH]c2ncc(C(=O)N3CCC[C@H]3c3ccc(Cl)cc3)cc12 [MSC-2530818] | 4.48 ± 4.84
CN(C)C(=O)Cn1cc(-c2ccc(-c3cncc4ccccc34)cc2)cn1 [BI-1347] | 1.11 ± 2.37
Cn1ncc2cc(-c3cnc(N)c(Cl)c3N3CCC4(CCNC4=O)CC3)ccc21 [CCT-151921] | 19.4 ± 33.2
